# According to patent publication US12063929B2, “3′-alkynyl abscisic acid derivatives as ABA antagonists” (University of Saskatchewan, priority 2018, dated 2024):
# Legend:
# barley = assay: Barley radical elongation assay; format: in vivo; settings: 10 μM 1019 alone, 3.0 days post treatment (FIG. 11B)
# Description: (§1) Seeds were surface sterilized by incubation in 10% bleach for 20 min with shaking, then rinsed four times with sterile water. Four ml of test solutions were pipetted into petri dishes (100×15 mm) that contain a single filter paper. Fifteen seeds were added to each dish. For rice, barely, and wheat, the experiment involved five treatments (5 μM ABA; 5 μM ABA+10 μM 1019; 10 μM 1019; water control; water+EtOH+NaOH control), with three replications per treatment. For sorghum, treatments were 10 μM ABA; 10 μM ABA+20 μM 1019; 20 μM 1019; water control; water+EtOH+NaOH control. Dishes were sealed with Parafilm, and incubated in the dark at room temperature. Radical length was measured daily post emergence using ImageJ software; shown are 3 days post treatment for barley, wheat and sorghum and 4.5 days post treatment for rice.
# rice = assay: Rice radical elongation assay; format: in vivo; settings: 10 μM 1019 alone, 4.5 days post treatment (FIG. 11A)
# Description: as §1
# [1] = test system: ABA-inducible promoter of the MKKK18 gene (GUS reporter); assay: ABA-inducible gene expression, MKKK18GUS reporter plants; format: in vivo, Arabidopsis; design: antagonist effect, GUS staining: dose or concentration left out as unconfirmed
# Description: Transgenic MKKK18GUS Arabidopsis plants harbor an […] (GUS) reporter gene fused to an ABA-inducible promoter of the MKKK18 gene (Okamoto et al. 2013). Six-day-old MKKK18GUS plants were treated with ABA1019 alone or both ABA1019 and ABA for 6 hours. Plants were then stained with 5-bromo-4-chloro-3-indolyl-beta-D-glucuronic acid cyclohexyl ammonium salt (X-Glc) for 14 hours, and destained with 70% ethanol.
# [2] = test system: Soybean (AAC Edward; 2018); assay: Soybean germination assay; format: in vivo
# Description: For each treatment 6 replicates of 10 seeds were plated into petri dishes lined with two filter papers and 10 mL of test solution. The covered dishes were stored at room temperature in the dark. Germinated seeds were counted over 24 hours. The following dosages were used when studying the effect of exemplary compounds of the application on soybean germination: control 1% DMSO. 10 μM ABA, 10 μM exemplary compound 1019, 100 um exemplary compound 1019, 10 μM exemplary compound 1019 plus 10 μM ABA and 100 uM exemplary compound 1019 plus 10 μM ABA.
# [3] = test system: RIL from L. culinaris var Redberry x L. culinaris ssp. orientalis IG72595; assay: Lentil RIL germination, emergence and time to flowering (F5-F7, F7 experiment); format: in vivo
# Text: • DSTG=Days from seeding to germination • DSTE=Days from seeding to Emergence • DSTF=Days from seeding to flowering • DSTH=Days from seeding to harvesting of first seed (F7 was not included because the purpose of this generation was to harvest as many seeds as possible) • GA3=gibberellic acid • DMSO=solvent required for dissolving 1019-ABA F7 Experiment
# Objective: Testing the effect of soaking seeds of the F7 generation in four solutions listed below.
# Treatments: water, DMSO, 1019-ABA, and 1019-ABA for 1 day followed by 100 μM GA3
# Plant material: Seeds derived from a cross between L. culinaris var Redberry and L. culinaris ssp. orientalis IG72595
# Experimental set up: 207 RIL-lines in total; 4 seeds (repetitions) per line; 4 treatments
# Data collection: Days from seeding to germination (DSTG), days from seeding to emergence (DSTE), and Days from seeding to first flower were counted. Days from seeding to first harvest was not determined because we needed as many seeds as possible in this generation.
# Days to germination (DSTG), emergence (DSTE), time to flowering (DSTF) and first harvest (DSTH) were determined during the development of a recombinant inbred line (RIL) developed from a cross between L. culinaris var Redberry and L. culinaris ssp. orientalis IG72595. The aim of the project was to find and incorporate Aphanomyces root rot resistance into the cultivated lentil, and the L. orientalis accession was identified with improved resistance. During the development of this RIL line speed breeding techniques were applied i.e. warmer temperatures, longer day length, higher light intensity, restricted pot volume etc. In generation F5, the exemplary compound became available and was tested on germination and emergence. […] The F7 generation was set up as a proper experiment with four treatments i.e. 1019, water, DMSO (solvent needed for dissolving exemplary compound 1019), and exemplary compound 1019 for one day followed by 100 μM GA3 (FIG. 12).
# Botrytis cinerea = assay: Pathogenicity test on detached Arabidopsis thaliana leaves; format: in vivo
# [4] = F7 experiment, 207 lines (Table 2)
# [5] = generation F7, 819 seeded (Table 1)
compound,measurement,setting,value
"CC1=C(C#Cc2ccccc2)C(=O)CC(C)(C)[C@@]1(O)/C=C/C(C)=C\C(=O)O [Compound 1019, (2Z,4E)-5-((S)-1-Hydroxy-2,6,6-trimethyl-4-oxo-3-(phenylethynyl)cyclohex-2-en-1-yl)-3-methylpenta-2,4-dienoic acid]",radical length (Least Square mean); radical elongation,barley,2.83
same,radical length (Least Square mean); radical elongation,rice,1.036
same,"agonist activity, GUS staining","[1]; 2.5 μM applied alone, 6 hours",weak agonist activity
same,GUS staining compared to ABA alone,[1]; 1:1 ratio with ABA,a reduction in the GUS staining
same,"antagonist effect, GUS staining","[1]; co-applied with ABA, dose dependent",potent antagonist effect
same,GUS staining compared to ABA alone,[1]; ratio of compound to ABA 10:1,abolition of the ABA GUS stain
same,soybean seed germination,[2]; 10 and 100 μM compound in the presence of 10 μM ABA,overcame the inhibition
same,soybean seed germination,[2]; compound alone at 10 or 100 μM,did not affect
same,emergence rate,[3]; F7 experiment,100%
same,% Germ.,[3]; [4],99%
same,Germ. (number of seeds germinated),[3]; [4],807
same,% Germ.,"[3]; F7 experiment, 207 lines (Table 2), listed as 1019-ABA",98.9%
same,seeds emerged,"[3]; F7 experiment, four days after seeding (FIG. 12B)",81%
same,days earlier flowering than water treatment,"[3]; F7 experiment, on average",4 days
same,DSTE (days from seeding to emergence),[3]; generation CVF6,4.03 days
same,DSTF (days from seeding to flowering),[3]; generation CVF6,26.14 days
same,DSTG (days from seeding to germination),[3]; generation CVF6,1.12 days
same,DSTH (days from seeding to harvesting of first seed),[3]; generation CVF6,44.02 days
same,Emerged (number of seeds emerged),"[3]; generation CVF6, 226 seeded",226
same,Germ. (number of seeds germinated),"[3]; generation CVF6, 226 seeded",226
same,DSTE (days from seeding to emergence),[3]; generation F5,4.93 days
same,DSTF (days from seeding to flowering),[3]; generation F5,28.22 days
same,DSTG (days from seeding to germination),[3]; generation F5,2.18 days
same,DSTH (days from seeding to harvesting of first seed),[3]; generation F5,45.41 days
same,Emerged (number of seeds emerged),"[3]; generation F5, 231 seeded",225
same,Germ. (number of seeds germinated),"[3]; generation F5, 231 seeded",230
same,Emerged (number of seeds emerged),[3]; [5],791
same,Germ. (number of seeds germinated),[3]; [5],816
same,disease lesions,"Botrytis cinerea; 100 μM spray, 24 hours post inoculation (FIG. 14)",smaller lesions
same,disease development caused by B. cinerea,"Botrytis cinerea; 100 μM spray, preliminary results",partially inhibits
same,symptom development,"Botrytis cinerea; plants sprayed with 100 μM, versus mock control",slower
